Experimental data from patent US9234046B2, “Treatment of renal disease” (OPSONA Therapeutics Ltd, priority 2007, dated 2016).
Where “and” joins values, the source holds several entries; their conditions need not be identical. Equal values may be shown once.

System: mice
Experiment: Warm renal ischemia/reperfusion repeat study Step 2, 25 minutes ischemia (Example 3)
Assay type: in vivo
Conditions: for MDA level as an index of lipid peroxidation / uremia (urea) / MPO activity as an index of neutrophil accumulation / creatininemia (creatinine): individual data and Mean ± SEM, n=6
Description: Nine Experimental groups were used in Step 2: • 1) Sham-operated mice sacrificed 1 day after surgery, n=6, • 2) PBS-vehicle-treated mice 15 minutes before ischemia/1 day reperfusion, n=6, • 3) Isotype control antibody 10 mg/kg-treated mice 15 minutes before 25 minutes ischemia/1 day reperfusion, n=6 (The isotype control antibody is mouse IgG1 isotype control purchased from RnD systems (catalogue number MAB002), this isotype control antibody having binding specificity for Keyhole Limpet Hemocyanin (KLH) antigen), • 4) OPN301 anti-TLR2 monoclonal antibody 10 mg/kg-treated mice 15 minutes before 25 minutes ischemia/1 day reperfusion, n=6, • 5) Pargyline 6 mg/kg-treated mice 15 minutes before 25 minutes ischemia/1 day reperfusion, n=6, • 6) PBS-vehicle-treated mice 15 minutes before 25 min ischemia/5 day reperfusion, n=6, • 7) Isotype control antibody (RnD Systems catalogue Number MAB002) 10 mg/kg-treated mice 15 minutes before 25 minutes ischemia/5 day reperfusion, n=6, • 8) OPN301 anti-TLR2 monoclonal antibody 10 mg/kg-treated mice 15 minutes before 25 minutes ischemia/5 day reperfusion, n=6, • 9) Pargyline 6 mg/kg-treated mice 15 minutes before 25 minutes ischemia/5 day reperfusion, n=6, Experimental Warm Renal Ischemia/Reperfusion (Step 1 and 2)
Briefly, mice were anesthetized with 10 μl/g of a mix of 2.5 ml ketamine (Ketalar 50 mg/mL, Centravet; Lapalisse, France), 0.5 ml xylazine (Rompun 2.5%, Centravet; Lapalisse, France), and 7 mL NaCl 0.9% (Centravet; Lapalisse, France). During surgery, animals were set on a 35° C. hotplate.
After a 2 millimetre incision was made at the right jugular level, jugular vein was exposed for a 1 minute-intravenous injection (insulin syringe; VWR, Fontenay-sous-Bois, France) of 70 μl of the considered treatment then closed after haemostasis (5/0 Ethicrin thread, Ethicon; Auneau, France). In Step 1, no jugular injection was performed.
Three centimetre midline incisions were made to abdominal cutaneous followed by muscular incisions were performed; renal pedicles were exposed and clamped for 25 minutes using microaneurysm clamps (AREX; Palaiseau, France). At the time of clamp installation and removal, kidneys were inspected for blood flow arrest and restoration, respectively. During renal ischemia duration, the abdomen was wrapped up to avoid loss of heat and be kept in relative intra-abdominal pressure. At the time of abdomen closing in 2 layers (5/0 Ethicrin thread, Ethicon; Auneau, France), mice were supplemented with 1 mL sterile NaCl (sodium chloride) 0.9% to maintain fluid balance and volume status. Finally, all mice received an intramuscular injection of 10 mg/kg profenid 50 mg/mL (Centravet; Lapalisse, France) for analgesic purpose then allowed to recover from surgery for 12 hours at 32° C. in a ventilated stove. Food and water were given ad libitum. Sham-operated mice underwent the same procedure without clamping.
At the end of the protocol, mice were sacrificed by lethal injection of pentobarbital (100 μL/10 g, Ceva Sante Animale; Libourne, France) 1 and 5 days after surgery.
Experimental methodology such as urea, creatinine, MPO and MDA as described in Example 2.
The results were given as mean values±standard error of the mean (SEM). A one-way ANOVA was used for comparison of within-group difference followed by a Newman-Keuls test for comparison of all pairs of columns (GraphPad Prism, San Diego, USA). A p<0.05 was accepted for statistical significance.

C#CCN(C)Cc1ccccc1 [Pargyline]
effect on renal function impairment induced by ischemic injury, in words (1 day after 25 minute ischemia): without effects
MDA level as an index of lipid peroxidation (Day 1 after 25 minute ischemia, PBS-vehicle 0.153 ± 0.014): 0.285 nmol/mg proteins and 0.163 nmol/mg proteins and 0.212 nmol/mg proteins and 0.242 nmol/mg proteins and 0.249 nmol/mg proteins and 0.202 nmol/mg proteins
MDA level as an index of lipid peroxidation (Day 1 after 25 minute ischemia, PBS-vehicle 0.153 ± 0.014, mean): 0.225 ± 0.017 nmol/mg proteins
uremia (urea) (Day 1 after 25 minute ischemia, PBS-vehicle 31.05 ± 5.70): 47.99 mmol/L and 48.92 mmol/L and 40.01 mmol/L and 27.83 mmol/L and 19.35 mmol/L and 18.22 mmol/L
uremia (urea) (Day 1 after 25 minute ischemia, PBS-vehicle 31.05 ± 5.70, listed as pargyline): 33.72 ± 5.64 mmol/L
uremia (urea) (Day 1 after 25 minute ischemia, PBS-vehicle 31.05 ± 5.70, mean): 33.72 ± 5.64 mmol/L
MPO activity as an index of neutrophil accumulation (Day 1 after 25 minute ischemia, PBS-vehicle 80.45 ± 8.66): 57.37±5.78 U MPO/mg protein and 47.9 U MPO/mg protein and 52.7 U MPO/mg protein and 68.7 U MPO/mg protein and 80.7 U MPO/mg protein and 48.8 U MPO/mg protein and 45.4 U MPO/mg protein
creatininemia (creatinine) (Day 1 after 25 minute ischemia, PBS-vehicle 99.97 ± 25.64): 185.9 µmol/L and 150.7 µmol/L and 134.1 µmol/L and 77.6 µmol/L and 53.3 µmol/L and 26.6 µmol/L
creatininemia (creatinine) (Day 1 after 25 minute ischemia, PBS-vehicle 99.97 ± 25.64, listed as pargyline): 104.7 ± 25.20 µmol/L
creatininemia (creatinine) (Day 1 after 25 minute ischemia, PBS-vehicle 99.97 ± 25.64, mean): 104.7 ± 25.20 µmol/L
MDA level as an index of lipid peroxidation (Day 5 after 25 minute ischemia, PBS-vehicle 0.188 ± 0.019): 0.290 nmol/mg proteins and 0.231 nmol/mg proteins and 0.218 nmol/mg proteins and 0.261 nmol/mg proteins and 0.234 nmol/mg proteins and 0.299 nmol/mg proteins
MDA level as an index of lipid peroxidation (Day 5 after 25 minute ischemia, PBS-vehicle 0.188 ± 0.019, mean): 0.255 ± 0.014 nmol/mg proteins
uremia (urea) (Day 5 after 25 minute ischemia, PBS-vehicle 8.78 ± 0.72): 7.63 mmol/L and 9.48 mmol/L and 7.37 mmol/L and 7.53 mmol/L and 8.78 mmol/L and 7.29 mmol/L
uremia (urea) (Day 5 after 25 minute ischemia, PBS-vehicle 8.78 ± 0.72, mean): 8.01 ± 0.37 mmol/L
creatininemia (creatinine) (Day 5 after 25 minute ischemia, PBS-vehicle 21.97 ± 1.84): 16 μmol/L and 27.2 μmol/L and 30.7 μmol/L and 19.2 μmol/L and 22.9 μmol/L (2×)
creatininemia (creatinine) (Day 5 after 25 minute ischemia, PBS-vehicle 21.97 ± 1.84, mean): 23.15 ± 2.16 µmol/L
MPO activity as an index of neutrophil accumulation (Day 5 after 25 minute ischemia, PBS-vehicle 54.95 ± 0.62): 44.4 U MPO/mg protein and 49.2 U MPO/mg protein and 47.6 U MPO/mg protein and 42.2 U MPO/mg protein and 46.3 U MPO/mg protein and 49.6 U MPO/mg protein
MPO activity as an index of neutrophil accumulation (Day 5 after 25 minute ischemia, PBS-vehicle 54.95 ± 0.62, mean): 46.55 ± 1.17 U MPO/mg protein
